# According to patent US20140066362A1, “METHOD FOR TREATING INFECTIONS BY TARGETING MICROBIAL H2S-PRODUCING ENZYMES” (NEW YORK UNIVERSITY, priority 2011, published 2014):
# Tested on: E. coli ΔsseA (3MST-deficient) strain
# Format: cell-based
# Settings: not given
row,Molecule,ΔsseA inhibition of growth
1,N#CC(C#N)=NNc1ccc(OC(F)(F)F)cc1 [FCCP],−460
2,"O=P(O)(O)O [200 mM Sodium Phosphate pH 7, Sodium Phosphate]",−497

# Same assay, conditions: Table 1; relative values of growth inhibition (negative numbers), ΔsseA vs wt E. coli
row,Molecule,ΔsseA inhibition of growth
1,NO [Hydroxylamine],−150
2,"O=[N+]([O-])c1ccc(Cl)c([N+](=O)[O-])c1 [1-Chloro-2,4-dinitrobenzene]",−221
3,Poly-L-lysine,−377
4,OC(CCN1CCCCC1)(c1ccccc1)c1ccccc1 [Pridinol],−206
5,CCN1CCN(C(=O)N[C@@H](C(=O)N[C@@H]2C(=O)N3C(C(=O)O)=C(CSc4nnnn4C)CS[C@H]23)c2ccc(O)cc2)C(=O)C1=O [Cefoperazone],−159
6,CCS(=O)(=O)CCn1c([N+](=O)[O-])cnc1C [Tinidazole],−223
7,CO[C@H]1C[C@H](O[C@H]2[C@H](C)[C@@H](O[C@@H]3O[C@H](C)C[C@H](N(C)C)[C@H]3OC(C)=O)[C@@H](C)C[C@@]3(CO3)C(=O)[C@H](C)[C@@H](OC(C)=O)[C@@H](C)[C@@H](C)OC(=O)[C@@H]2C)O[C@@H](C)[C@@H]1OC(C)=O [Troleandomycin],−203
8,CN1CCN(CCCN2c3ccccc3Sc3ccc(C(F)(F)F)cc32)CC1 [Trifluoperazine],−372
9,CN(C)CCC=C1c2ccccc2CCc2ccccc21 [Amitriptyline],−422
10,CCOc1ccc2ccccc2c1C(=O)N[C@@H]1C(=O)N2[C@@H]1SC(C)(C)[C@@H]2C(=O)O [Nafcillin],−227
11,Colistin,−102
12,c1ccc(-c2nn(-c3ccccc3)[n+](-c3cccc4ccccc34)n2)cc1 [Tetrazolium violet],−293
13,CCn1cc(C(=O)O)c(=O)c2cc(F)c(N3CCNCC3)cc21 [Norfloxacin],−212
14,CC(C(=O)O)c1cccc(C(=O)c2ccccc2)c1 (stereo not drawn) [Ketoprofen],−468
15,Polymyxin B,−231
16,CCn1cc(C(=O)O)c(=O)c2cc3c(cc21)OCO3 [Oxolinic acid],−117
17,NC(CO)C(=O)NNCc1ccc(O)c(O)c1O (stereo not drawn) [Benserazide],−336
18,O=C(O)C=Cc1ccccc1 [Cinnamic acid],−204
19,Cc1ncc([N+](=O)[O-])n1CC(O)CCl (stereo not drawn) [Ornidazole],−203
20,CCN(CC)CC(=O)Nc1c(C)cccc1C [Lidocaine],−269
21,Oc1c(Cl)c(Cl)c(Cl)c(Cl)c1Cl [Pentachlorophenol],−287
22,O=C1C=C(O)C(=O)c2ccccc21 [Lawsone],−330
23,Spiramycin,−235
24,CCCCCCCCCCCC[N+](C)(C)CCOc1ccccc1 [Domiphen bromide],−250

row,Molecule,ΔsseA inhibition of growth
1,CO[C@@H]1[C@@H](O[C@@H]2O[C@H](C)[C@@H](O[C@H]3C[C@@](C)(O)[C@@H](OC(=O)CC(C)C)[C@H](C)O3)[C@H](N(C)C)[C@H]2O)[C@@H](CC=O)C[C@@H](C)[C@@H](O)/C=C/C=C/C[C@@H](C)OC(=O)C[C@H]1OC(C)=O [Josamycin],−294
2,O=[N+]([O-])c1ccc(-n2nc(-c3ccccc3)n[n+]2-c2ccc(I)cc2)cc1.[Cl-] [Iodonitro tetrazolium violet],−215
3,CCn1cc(C(=O)O)c(=O)c2ccc(C)nc21 [Nalidixic acid],−183
4,CN(C)CCCN1c2ccccc2Sc2ccc(Cl)cc21 [Chlorpromazine],−251
5,CO[C@H]1C[C@H](O[C@H]2[C@H](C)[C@@H](O[C@@H]3O[C@H](C)C[C@H](N(C)C)[C@H]3O)[C@@H](C)C[C@@]3(CO3)C(=O)[C@H](C)[C@@H](O)[C@@H](C)[C@@H](C)OC(=O)[C@@H]2C)O[C@@H](C)[C@@H]1O [Oleandomycin],−498
6,"O=[N+]([O-])c1ccc(O)c([N+](=O)[O-])c1 [2,4-Dinitrophenol]",−296
7,CN(CC[C@H](N)CC(=O)N[C@H]1C=C[C@H](n2ccc(N)nc2=O)O[C@@H]1C(=O)O)C(=N)N [Blasticidin S],−185
8,CC(Oc1ccccc1)C(=O)N[C@@H]1C(=O)N2[C@@H]1SC(C)(C)[C@@H]2C(=O)O (stereo partly drawn) [Phenethicillin],−216
9,N.N.N.N.N.N.N.N.N.N.N.N.N.N.[Cl-].[Cl-].[Cl-].[Cl-].[Cl-].[Cl-].[O-2].[O-2].[Ru+3].[Ru+3].[Ru+4] [Ruthenium red],−268
10,CC(C)NCC(O)COc1cccc2ccccc12 (stereo not drawn) [Propranolol],−263
11,[H]/N=C(/N)N[C@H]1[C@H](O)[C@@H](O)[C@H](O[C@@H]2O[C@@H](C)[C@](O)(C=O)[C@H]2O[C@@H]2O[C@@H](CO)[C@H](O)[C@@H](O)[C@@H]2NC)[C@@H](N/C(N)=N\[H])[C@@H]1O [Streptomycin],−421
12,CO[C@@H]1[C@@H](OC(N)=O)[C@@H](O)[C@H](Oc2ccc3c(O)c(NC(=O)c4ccc(O)c(CC=C(C)C)c4)c(=O)oc3c2C)OC1(C)C [Novobiocin],−265
13,Nc1c2ccccc2nc2ccccc12 [9-Aminoacridine],−142
14,CSc1ccc2c(c1)N(CCC1CCCCN1C)c1ccccc1S2 (stereo not drawn) [Thioridazine],−313
15,"CC(C)c1nc2nc(N)nc(N)c2nc1C(C)C [2,4-Diamino-6,7-diisopropylpteridine]",−429
16,"O=S(=O)(F)Cc1ccccc1 [Phenyl-methylsulfonyl-fluoride (PMSF), Phenyl-methylsulfonyl-fluoride]",−194
17,Nc1ccn([C@@H]2O[C@H](CO)[C@@H](O)[C@@H]2O)c(=O)n1 [Cytosine arabinoside],−281
18,N#CO [Sodium cyanate],−238
19,CCN(CC)C(=S)SSC(=S)N(CC)CC [Disulfiram],−246
20,N[C@H](CO)C(=O)O [D-Serine],−398
21,CC[C@H]1OC(=O)[C@H](C)[C@@H](O[C@H]2C[C@@](C)(OC)[C@@H](O)[C@H](C)O2)[C@H](C)[C@@H](O[C@@H]2O[C@H](C)C[C@H](N(C)C)[C@H]2O)[C@](C)(O)C[C@@H](C)C(=O)[C@H](C)[C@@H](O)[C@]1(C)O [Erythromycin],−468
22,O=C1OC(CN2CCOCC2)CN1/N=C/c1ccc([N+](=O)[O-])o1 (stereo not drawn) [Furaltadone],−162
23,CO[C@H]1/C=C/O[C@@]2(C)Oc3c(C)c([O-])c4c(O)c(cc(O)c4c3C2=O)NC(=O)/C(C)=C\C=C\[C@H](C)[C@H](O)[C@@H](C)[C@@H](O)[C@@H](C)[C@H](OC(C)=O)[C@@H]1C.[Na+] [Rifamycin SV],−352
24,CCCCC(CC)CNC(=N)NC(=N)NCCCCCCNC(=N)NC(=N)NCC(CC)CCCC (stereo not drawn) [Alexidine],−216

row,Molecule,ΔsseA inhibition of growth
1,Cn1cnc([N+](=O)[O-])c1Sc1ncnc2nc[nH]c12 [Azathioprine],−341
2,CN(C)c1ccc(C(=C2C=CC(=[N+](C)C)C=C2)c2ccc(N(C)C)cc2)cc1 [Crystal Violet],−576
3,CC(CN1c2ccccc2Sc2ccccc21)N(C)C (stereo not drawn) [Promethazine],−262
4,Nc1ccc2cc3ccc(N)cc3nc2c1 [Proflavine],−93
5,CCCCCCCC(=O)[O-].[Na+] [Sodium caprylate],−346
6,CC1(C)S[C@@H]2[C@H](NC(=O)Cc3ccccc3)C(=O)N2[C@H]1C(=O)O [Penicillin G],−186
7,CC1(C)S[C@@H]2[C@H](NC(=O)C(C(=O)O)c3ccccc3)C(=O)N2[C@H]1C(=O)O (stereo partly drawn) [Carbenicillin],−164
8,COc1cc(Cc2cnc(N)nc2N)cc(OC)c1OC [Trimethoprim],−212
9,NC(=O)c1cc[n+](CC2=C(C(=O)O)N3C(=O)[C@@H](NC(=O)[C@@H](c4ccccc4)S(=O)(=O)[O-])[C@H]3SC2)cc1 [Cefsulodin],−201
10,CCCCCCCCCCCC[N+](C)(C)C.[Br-] [Dodecyltrimethyl ammonium bromide],−225
11,Cc1onc(-c2ccccc2Cl)c1C(=O)N[C@@H]1C(=O)N2[C@@H]1SC(C)(C)[C@@H]2C(=O)O [Cloxacillin],−182
12,Cn1c(=O)c2c(ncn2C)n(C)c1=O [Caffeine],−173
13,Cc1onc(-c2ccccc2)c1C(=O)N[C@@H]1C(=O)N2[C@@H]1SC(C)(C)[C@@H]2C(=O)O [Oxacillin],−346
14,O=C1C2CC=CCC2C(=O)N1SC(Cl)(Cl)Cl (stereo not drawn) [Captan],−357
15,CN[C@@H]1[C@@H](O[C@H]2O[C@H](CO)[C@@H](N)[C@H](O)[C@H]2O)OC2C[C@@H](N)[C@@H](O[C@H]3[C@H](O)[C@@H](O)[C@H](N)C[C@@H]3N)OC2[C@@H]1O (stereo partly drawn) [Apramycin],−179
16,O=C(O)CCCc1ccc(N(CCCl)CCCl)cc1 [Chlorambucil],−177
17,CC(=O)OCC1=C(C(=O)O)N2C(=O)[C@@H](NC(=O)Cc3cccs3)[C@H]2SC1 [Cephalothin],−160
18,CCCCCCCC[N+](C)(CCCCCCCC)CCCCCCCC.[Cl-] [Methyltrioctylammonium chloride],−326
19,O=c1ccc2ccccc2o1 [Coumarin],−243
20,CO[C@@]1(NC(=O)C(C(=O)O)c2ccc(O)cc2)C(=O)N2C(C(=O)O)=C(CSc3nnnn3C)CO[C@@H]21 (stereo partly drawn) [Moxalactam],−171
21,CC(=O)O[C@H]1C[C@@]2(C)[C@@H](C[C@@H](O)[C@H]3[C@@]4(C)CC[C@@H](O)[C@@H](C)[C@@H]4CC[C@@]32C)/C1=C(\CCC=C(C)C)C(=O)O [Fusidic acid],−271
22,N#CC(C#N)=NNc1cccc(Cl)c1 [CCCP],−422
